# Laboratory results published in article PMC11087051, “Large-scale deorphanization of Nematostella vectensis neuropeptide G protein-coupled receptors supports the independent expansion of bilaterian and cnidarian peptidergic systems” (eLife, 2024).
# Legend:
# [1] = test system: QITRFa.R196 (R196, GPR196); test: GPCR deorphanization dose-response assay (HEK293, G5A luminescence); type: cell-based, Nematostella vectensis; settings: drc fit
# Method: (§1) To experimentally identify Nematostella neuropeptide GPCRs, we tested our selection of 161 N. vectensis GPCRs in a pharmacological assay for activation by peptides from our peptide library (Figure 3A, Supplementary files 3 and 8). We expressed the candidate GPCRs in mammalian cells, together with a promiscuous Gqi protein and a luminescent G5A reporter (Figure 3A, Supplementary file 7). The peptides were separated into different mixes (Supplementary file 3), which were then tested on each GPCR (Supplementary file 4). Receptor-mix combinations that gave a positive signal were further resolved by testing the individual peptides of the mix to identify the activating ligand (Supplementary file 4). […]
# (§2) A detailed step-by-step protocol has been published in [Thiel et al., 2023]. […] For each well, 10 µl OptiMEM (without FBS), 70 ng of GPCR containing plasmid, 70 ng of Gqi5/9 plasmid, 10–20 ng of G5A plasmid (to increase luminescence values of our HEK293 cell line), and 0.45–0.48 µl T5000/PEI were mixed and incubated for 20 min at room temperature. […] Readings were performed with a FlexStation 3 Multi-mode Microplate reader (Molecular Devices), for a period of 60 s per well, ligand injection after 15–18 s, and the whole plate was read with the Flex option. […] The readout data for the final dose-response curves is provided in Supplementary file 9 and as .csv files in the repository in the data folder. […]
# QGRFa.R070 (R70, GPR70) = test: as above; type: cell-based, Nematostella vectensis; settings: drc fit
# Method: as §1, §2
substance,measurement,setting,value
pyrQITRFamide [synthetic N. vectensis RFamide neuropeptide pyrQITRFamide],Slope of the dose-response curve,[1],-0.6635
same,Slope of the dose-response curve,"QGRFa.R070 (R70, GPR70)",-1.343
